Measurements as given in patent publication US4187312A, “3-Hydroxy-4,4-dimethyl-5-pyrrolidone derivatives” (Beecham Group Limited, priority 1975, dated 1980).

Columns and labels:
[1] = tested on: aerosol administered histamine challenge; test: protection of conscious guinea pigs from an aerosol administered histamine challenge; assay type: in vivo, guinea pig; conditions: 30 minutes before continuous aerosol of histamine
Experimental: The compounds were examined for their ability to protect conscious guinea pigs from an aerosol administered histamine challenge. The compounds were given 30 minutes before the animals were challenged with a continuous aerosol of histamine.

[2] = tested on: pentagastrin-stimulated gastric acid secretion; test: inhibition of pentagastrin-stimulated gastric acid secretion in the perfused rat stomach preparation (Ghosh and Schild preparation); assay type: in vivo; conditions: 500 μg/kg, intravenously
Experimental: The anti-secretory activity of the compounds was determined by their inhibition of pentagastrin-stimulated gastric acid secretion in the perfused rat stomach preparation (Ghosh and Schild preparation).

[3] = tested on: 5-hydroxytryptamine-induced bronchoconstriction; test: inhibition of 5-hydroxytryptamine-induced bronchoconstriction in the anaesthetised, artificially respired guinea pig (Konzett-Rossler preparation); assay type: in vivo; conditions: Cavia porcellus, iv, intravenously, read-out: inhibition of bronchoconstriction, IC50
Excerpt: The compounds were examined for their ability to inhibit 5-hydroxytryptamine-induced bronchoconstriction in the anaesthetised, artificially respired guinea pig (Konzett-Rossler preparation).

[4] = tested on: mice; test: toxicity in mice; assay type: in vivo; conditions: dosed up to 900 mg/kg, subcutaneously

Structure (SMILES)	time taken to elicit a pre-convulsive cough compared with control animals ([1]; 2.5 mg/kg, intra-peritoneally)	time taken to elicit a pre-convulsive cough compared with control animals ([1]; 10 mg/kg orally)	inhibition of acid secretion [2]	ED50 [3] [mg/kg]	toxic symptoms [4]
CCCCCCC(C)(O)CCN1C(=O)C(C)(C)C(=O)C1CCCCCCC(=O)O (centres unmarked) [2-(6'-Carboxy-n-hexyl)-4,4-dimethyl-1-(3"-hydroxy-3"-methyl-n-nonyl)pyrrolidin-3,5-dione]	significantly prolonged	significantly prolonged	–	–	–
CCCCCCC(C)(O)CCN1C(=O)C(C)(C)C(=O)C1CCCCCCC(=O)OCC (centres unmarked) [4,4-Dimethyl-2-(6'-ethoxycarbonyl-n-hexyl)-1-(3"-hydroxy-3"-methyl-n-nonyl)-pyrrolidin-3,5-dione]	–	–	inhibited acid secretion	~0.01	No toxic symptoms were observed
